Data published in ChEMBL document CHEMBL5233219, “Diarylamides in anticancer drug discovery: A review of pre-clinical and clinical investigations” (Eur J Med Chem, 2020).
pIC50: −log10 of the molar value.

Legend:
SK-OV-3 [1] = test: Antiproliferative activity against human SK-OV-3 cells assessed as inhibition of cell growth; assay type: functional, cell-based
OVCAR-3 = test: Antiproliferative activity against human OVCAR-3 cells assessed as inhibition of cell growth; assay type: functional, cell-based
[2] = target: T1, Macrophage colony-stimulating factor 1 receptor (Homo sapiens, UniProt P07333); test: Inhibition of FMS (unknown origin) relative to control; details: concentration not given here
T1 sequence (P07333 whole entry): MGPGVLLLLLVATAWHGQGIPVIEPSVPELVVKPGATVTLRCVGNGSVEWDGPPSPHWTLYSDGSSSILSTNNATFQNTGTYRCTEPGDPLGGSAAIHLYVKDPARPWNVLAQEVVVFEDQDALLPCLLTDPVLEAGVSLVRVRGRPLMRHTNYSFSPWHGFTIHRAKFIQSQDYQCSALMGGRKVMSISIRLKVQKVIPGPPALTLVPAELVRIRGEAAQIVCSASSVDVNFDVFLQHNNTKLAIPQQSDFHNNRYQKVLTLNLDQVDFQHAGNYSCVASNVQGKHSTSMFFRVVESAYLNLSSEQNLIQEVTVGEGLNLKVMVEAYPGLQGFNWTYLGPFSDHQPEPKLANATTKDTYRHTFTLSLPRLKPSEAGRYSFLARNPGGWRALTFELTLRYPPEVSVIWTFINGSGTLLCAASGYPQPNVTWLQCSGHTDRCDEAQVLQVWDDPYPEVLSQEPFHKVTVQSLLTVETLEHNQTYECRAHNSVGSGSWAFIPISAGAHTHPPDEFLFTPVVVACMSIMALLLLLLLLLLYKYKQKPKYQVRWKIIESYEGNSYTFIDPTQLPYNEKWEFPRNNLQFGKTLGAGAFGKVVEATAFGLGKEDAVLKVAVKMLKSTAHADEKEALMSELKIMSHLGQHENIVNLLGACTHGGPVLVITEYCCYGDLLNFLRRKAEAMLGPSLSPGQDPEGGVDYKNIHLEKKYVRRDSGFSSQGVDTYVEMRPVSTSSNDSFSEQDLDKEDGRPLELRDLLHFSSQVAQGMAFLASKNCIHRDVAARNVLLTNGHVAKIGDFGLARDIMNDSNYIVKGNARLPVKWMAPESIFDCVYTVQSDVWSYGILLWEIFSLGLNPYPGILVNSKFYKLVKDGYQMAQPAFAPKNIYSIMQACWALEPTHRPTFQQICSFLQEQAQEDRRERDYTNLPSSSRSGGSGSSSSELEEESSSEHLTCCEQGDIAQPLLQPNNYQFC

IGROV-1 = test: Antiproliferative activity against human IGROV-1 cells assessed as inhibition of cell growth relative to control; assay type: functional; design: scale not given: the % may be the effect or the level left
Macrophage = test: Cytotoxicity against human Macrophage cells relative to control; assay type: functional
[3] = target: T1, Macrophage colony-stimulating factor 1 receptor; test: Inhibition of FMS (unknown origin)
HS27 = test: Cytotoxicity against human HS27 cells; assay type: functional, cell-based
SK-OV-3 [4] = test: Antiproliferative activity against human SK-OV-3 cells assessed as inhibition of cell growth relative to control; assay type: functional; design: scale not given: the % may be the effect or the level left
DU-145 = test: Antiproliferative activity against human DU-145 cells assessed as inhibition of cell growth; assay type: functional, cell-based
T47D = test: Antiproliferative activity against human T47D cells assessed as inhibition of cell growth relative to control; assay type: functional; design: scale not given: the % may be the effect or the level left
[5] = Cytotoxicity against human A375P cells; assay type: functional, cell-based
[6] = Antiproliferative activity against human A375P cells; assay type: functional, cell-based
[7] = Cytotoxicity against human HUVEC cells; assay type: toxicity, cell-based
[8] = test system: Panel NCI-60 (60 carcinoma cell lines); test: Antiproliferative activity against human Panel NCI-60 (60 carcinoma cell lines) assessed as reduction in cell viability; assay type: functional
OVCAR-5 = test: Antiproliferative activity against human OVCAR-5 cells assessed as reduction in cell viability; assay type: functional, cell-based
MCF7 = test: Anticancer activity against human MCF7 cells assessed as inhibition of cell growth; assay type: functional; design: scale not given: the % may be the effect or the level left
MOLT-4 = test: Anticancer activity against human MOLT-4 cells assessed as inhibition of cell growth; assay type: functional; design: scale not given: the % may be the effect or the level left
MDA-MB-468 = test: Anticancer activity against human MDA-MB-468 cells assessed as inhibition of cell growth; assay type: functional; design: scale not given: the % may be the effect or the level left
[9] = Antiproliferative activity against human OVCAR assessed as reduction in cell viability; assay type: functional, cell-based
[10] = Antitumor activity against human OVCAR cells implanted in mouse assessed as tumor growth inhibition; assay type: functional
[11] = test system: Panel NCI-60 (60 carcinoma cell lines); test: Antiproliferative activity against human Panel NCI-60 (60 carcinoma cell lines) assessed as reduction in cell viability at 10 uM; assay type: functional
[12] = Plasma concentration in mouse at 100 mg/kg, po administered once daily; assay type: ADME, organism-based; details: in vivo
[13] = Half life in mouse at 100 mg/kg, po administered once daily; details: in vivo
[14] = AUC in mouse at 100 mg/kg, po administered once daily; assay type: ADME, organism-based; design: dose 100 mg/kg, route po; details: in vivo
[15] = Volume of distribution in human; assay type: ADME
[16] = Oral bioavailability in mouse at 100 mg/kg administered once daily; assay type: ADME, organism-based; details: in vivo
[17] = Volume of distribution in mouse at 100 mg/kg, po administered once daily; assay type: ADME, organism-based; details: in vivo
[18] = Plasma protein binding in mouse at 100 mg/kg, po administered once daily; assay type: ADME, organism-based; details: read-out: PPB (converted)
[19] = Inhibition of tyrosine kinase (unknown origin); design: species or system Homo sapiens
SCH = test: Antiproliferative activity against human SCH cells assessed as reduction in cell viability; assay type: functional, cell-based
[20] = Cmax in male mouse plasma; assay type: ADME, cell-free
[21] = Cmax in female mouse plasma; assay type: ADME, cell-free
[22] = Cmax in mouse plasma; assay type: ADME, cell-free
[23] = Oral bioavailability in mouse at 400 to 600 mg/kg; assay type: ADME, organism-based; details: in vivo, dose 400-600 mg/kg
Cytochrome P450 1A2 = target: T2, Cytochrome P450 1A2 (Homo sapiens, UniProt P05177); test: Inhibition of CYP1A2 (unknown origin); assay type: ADME
T2 sequence (P05177 whole entry): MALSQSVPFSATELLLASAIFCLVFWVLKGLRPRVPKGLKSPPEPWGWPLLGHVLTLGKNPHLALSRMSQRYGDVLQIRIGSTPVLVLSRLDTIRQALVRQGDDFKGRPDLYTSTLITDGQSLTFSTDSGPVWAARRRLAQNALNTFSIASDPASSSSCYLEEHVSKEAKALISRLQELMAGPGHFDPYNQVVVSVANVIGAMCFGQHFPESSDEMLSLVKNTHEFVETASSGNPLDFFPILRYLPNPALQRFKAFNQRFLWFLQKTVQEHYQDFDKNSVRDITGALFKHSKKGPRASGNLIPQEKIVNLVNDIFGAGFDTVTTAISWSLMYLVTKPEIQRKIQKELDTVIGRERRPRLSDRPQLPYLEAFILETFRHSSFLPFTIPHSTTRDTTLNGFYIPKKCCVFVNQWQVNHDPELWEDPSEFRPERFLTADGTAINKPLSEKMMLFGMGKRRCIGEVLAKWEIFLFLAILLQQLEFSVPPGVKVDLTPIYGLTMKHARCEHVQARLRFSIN

[24] = Oral bioavailability in mouse; assay type: ADME, organism-based; details: in vivo
[25] = AUC in mouse at 400 to 600 mg/kg, po administered once daily; assay type: ADME, organism-based; design: route po; details: in vivo, dose 400-600 mg/kg
[26] = Plasma concentration in mouse at 400 to 600 mg/kg, po administered once daily; assay type: ADME, organism-based; details: in vivo, dose 400-600 mg/kg
Cytochrome P450 2D6 = Cytochrome P450 2D6 (Homo sapiens, UniProt P10635); test: Inhibition of CYP2D6 (unknown origin); assay type: ADME
Chain of Cytochrome P450 2D6 (P10635 whole entry): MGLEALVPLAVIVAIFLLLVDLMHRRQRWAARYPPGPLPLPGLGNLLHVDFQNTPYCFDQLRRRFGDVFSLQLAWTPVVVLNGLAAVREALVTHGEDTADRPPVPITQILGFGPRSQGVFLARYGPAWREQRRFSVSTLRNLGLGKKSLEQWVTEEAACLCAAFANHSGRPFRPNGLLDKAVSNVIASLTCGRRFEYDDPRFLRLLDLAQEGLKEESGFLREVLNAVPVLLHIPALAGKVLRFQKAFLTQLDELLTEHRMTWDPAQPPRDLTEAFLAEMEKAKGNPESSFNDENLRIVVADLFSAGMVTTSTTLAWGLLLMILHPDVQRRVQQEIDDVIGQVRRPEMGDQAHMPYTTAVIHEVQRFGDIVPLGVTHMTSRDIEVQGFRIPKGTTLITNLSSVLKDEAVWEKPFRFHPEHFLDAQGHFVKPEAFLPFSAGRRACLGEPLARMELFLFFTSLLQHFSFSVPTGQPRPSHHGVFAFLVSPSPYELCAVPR

Cytochrome P450 2C19 = Cytochrome P450 2C19 (Homo sapiens, UniProt P33261); test: Inhibition of CYP2C19 (unknown origin); assay type: ADME
Chain of Cytochrome P450 2C19 (P33261 whole entry): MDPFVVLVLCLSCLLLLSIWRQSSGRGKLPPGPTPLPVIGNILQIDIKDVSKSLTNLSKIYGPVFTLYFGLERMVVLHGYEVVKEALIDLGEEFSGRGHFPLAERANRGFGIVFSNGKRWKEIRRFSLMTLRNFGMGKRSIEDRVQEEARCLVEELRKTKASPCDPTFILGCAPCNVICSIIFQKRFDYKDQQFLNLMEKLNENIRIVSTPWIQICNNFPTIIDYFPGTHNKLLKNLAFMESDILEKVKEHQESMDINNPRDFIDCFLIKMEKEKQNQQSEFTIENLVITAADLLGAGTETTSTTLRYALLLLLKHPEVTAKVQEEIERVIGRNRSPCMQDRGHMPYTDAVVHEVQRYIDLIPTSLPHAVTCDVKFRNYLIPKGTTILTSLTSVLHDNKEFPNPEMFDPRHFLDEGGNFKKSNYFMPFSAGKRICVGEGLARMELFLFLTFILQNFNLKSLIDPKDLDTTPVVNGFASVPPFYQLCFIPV

[27] = Inhibition of tyrosine kinase (unknown origin) in human LNCaP-abl cells
[28] = mouse, in vivo, po
Description: Volume of distribution in mouse at 150 to 400 mg/kg, po administered twice daily

[29] = Oral bioavailability in mouse at 150 to 400 mg/kg administered twice daily; assay type: ADME, organism-based; details: in vivo, dose 150-400 mg/kg
[30] = Drug absorption in mouse at 400 mg/kg, po; assay type: ADME, organism-based; details: in vivo, read-out: Drug absorption
[31] = Plasma concentration in mouse at 150 to 400 mg/kg, po administered twice daily; assay type: ADME, organism-based; details: in vivo, dose 150-400 mg/kg
[32] = AUC in mouse at 150 to 400 mg/kg, po administered twice daily; assay type: ADME, organism-based; design: route po; details: in vivo, dose 150-400 mg/kg
[33] = Tmax in human; assay type: ADME
[34] = Half life in mouse at 150 to 400 mg/kg, po administered twice daily; assay type: ADME, organism-based; details: in vivo, dose 150-400 mg/kg
[35] = Drug excretion in rat feces assessed as cumulative amount of unchanged drug excreted at 10 mg/kg, po; assay type: ADME, organism-based; details: faeces, read-out: Drug excretion
[36] = Plasma protein binding in mouse at 150 to 400 mg/kg, po administered twice daily; assay type: ADME, organism-based; details: dose 150-400 mg/kg, read-out: PPB (converted)
[37] = Half life in human; assay type: ADME

In the case of O=C(Nc1cccc(-n2ccc3c(NC(=O)c4ccccc4)nccc32)c1)c1ccc(N2CCOCC2)c(C(F)(F)F)c1, the pIC50 (SK-OV-3 [1]) was 5.44, the pIC50 (OVCAR-3) was 7.35 and the inhibition [2] was 90%. For the same compound, the Activity (IGROV-1) was 90%, the Activity (Macrophage) was 52% and the pIC50 [3] was 7.52. For the same compound, the pIC50 (HS27) was 6.52, the Activity (SK-OV-3 [4]) was 106.2% and the pIC50 (DU-145) was 7.01. For the same compound, the Activity (T47D) was 90%.

CCN1CCN(Cc2ccc(NC(=O)Nc3ccc(-n4ccc5c(NC(=O)c6ccccc6)nccc54)cc3)cc2C(F)(F)F)CC1 showed a pIC50 [5] of 7.00 and a pIC50 (HS27) of 5.11.

Compound Cc1ccc(NC(=O)Nc2cc(F)cc(C(F)(F)F)c2)cc1Nc1cc(=O)[nH]c(N)n1 has a pIC50 [6] of 6.72.

With COc1ccc(-c2nc3c(Nc4ccc(NC(=O)c5cccc(Cl)c5)cc4)nc(C)nc3o2)cc1 the pIC50 [7] was 5.89.

With Cc1nc(Nc2ccc(NC(=O)c3cccc(Cl)c3)cc2)c2nc(-c3ccc(Cl)cc3)oc2n1 the pIC50 [7] was 5.88.

With COc1ccc(-c2nn(-c3ccc(NC(=O)c4ccc(Cl)c(C(F)(F)F)c4)cc3)cc2-c2ccncc2)cc1Cl the Activity [8] was 103.16% and the pIC50 (OVCAR-5) was 5.88.

With COc1cc2cc3c(nc2cc1OC)CCN3Cc1ccc(NC(=O)c2ccc(Cl)c(C(F)(F)F)c2)cc1 the Activity (MCF7) was 84.97%, the Activity (MOLT-4) was 43.19% and the Activity (MDA-MB-468) was 87.13%.

Cc1ccc(NC(=O)Nc2ccc(Cl)nc2)cc1Nc1cc(=O)[nH]c(N)n1 showed a pIC50 [6] of 6.72.

Compound O=C(Nc1ccc(-n2ccc3c(NC(=O)c4ccccc4)ncnc32)cc1)Nc1cccc(Cl)c1Cl has a pIC50 [9] of 5.44, a TGI [10] of 1800 nM and an Activity [11] of 109.18%.

Compound Cc1nc(Nc2ncc(C(=O)Nc3c(C)cccc3Cl)s2)cc(N2CCN(CCO)CC2)n1.O [DASATINIB] has a Cp [12] of 129 ng/mL, a half-life [13] of 3 h and an AUC [14] of 48.8 ng·h/mL. For the same compound, the Vd [15] was 2.05 L, the bioavailability [16] was 14% and the Vd [17] was 2.052 L. It also gave a fraction unbound [18] of 0.04.

For Cc1ccc(NC(=O)c2ccc(CN3CCN(C)CC3)cc2)cc1Nc1nccc(-c2cccnc2)n1 [IMATINIB], the pIC50 [19] was 7.52, the pIC50 (SCH) was 5.33 and the Cmax [20] was 921 ng/mL. For the same compound, the Cmax [21] was 1080 ng/mL, the Cmax [22] was 1.9 ng/mL and the bioavailability [23] was 98.3%. The “inhibition (INH)” value (Cytochrome P450 1A2) was 10%, the bioavailability [24] was 98.3% and the AUC [25] was 24800 ng·h/mL. For the same compound, the Cp [26] was 3.7 ng/mL, the “inhibition (INH)” value (Cytochrome P450 2D6) was 10% and the “inhibition (INH)” value (Cytochrome P450 2C19) was 10%. For the same compound, the pIC50 [27] was 6.73.

Cc1cn(-c2cc(NC(=O)c3ccc(C)c(Nc4nccc(-c5cccnc5)n4)c3)cc(C(F)(F)F)c2)cn1 [NILOTINIB] gave a Vd [28] of 0.55 L/kg, a pIC50 [19] of 6.73 and a bioavailability [29] of 25%. The pIC50 (SCH) was 4.84, the Fa [30] was 35% and the Cp [31] was 445 ng/mL. For the same compound, the AUC [32] was 11.9 ng·h/mL, the Tmax [33] was 3 h and the half-life [34] was 13 h. For the same compound, the dose excreted [35] was 69%, the fraction unbound [36] was 0.02 and the half-life [37] was 17 h.

Compound CNC(=O)c1cc(Oc2ccc(NC(=O)Nc3ccc(Cl)c(C(F)(F)F)c3)cc2)ccn1 [SORAFENIB] has a pIC50 [5] of 7.02 and a pIC50 (HS27) of 5.11.
